Structures can show the parent of a compound that is named as a salt.
What was measured:
Conditions in all cases: 72 h
HepG2 [1] = assay: cell viability relative to DMSO; higher = less toxic
U2OS [2] = assay: as above
Vero E6 [3] = assay: as above
Caco-2 [4] = assay: as above
Calu-3 [5] = assay: as above
HepG2 [6] = assay: drug sensitivity score (DSS) for viability; higher = more toxic; extreme values may be limits of the assay
U2OS [7] = assay: as above
Vero E6 [8] = assay: as above
Caco-2 [9] = assay: as above
Calu-3 [10] = assay: as above
HepG2 [11] = assay: relative viability EC50 (midpoint between 100% and the lowest measured viability); higher = less toxic
U2OS [12] = assay: as above
Vero E6 [13] = assay: as above
Caco-2 [14] = assay: as above
Calu-3 [15] = assay: as above

Structure (SMILES) | cell viability (HepG2 [1]; 1 nM) | cell viability (HepG2 [1]; 10 nM) | cell viability (HepG2 [1]; 100 nM) | cell viability (HepG2 [1]; 1000 nM) | cell viability (HepG2 [1]; 10000 nM) | cell viability (U2OS [2]; 1 nM) | cell viability (U2OS [2]; 10 nM) | cell viability (U2OS [2]; 100 nM) | cell viability (U2OS [2]; 1000 nM) | cell viability (U2OS [2]; 10000 nM) | cell viability (Vero E6 [3]; 1 nM) | cell viability (Vero E6 [3]; 10 nM) | cell viability (Vero E6 [3]; 100 nM) | cell viability (Vero E6 [3]; 1000 nM) | cell viability (Vero E6 [3]; 10000 nM) | cell viability (Caco-2 [4]; 1 nM) | cell viability (Caco-2 [4]; 10 nM) | cell viability (Caco-2 [4]; 100 nM) | cell viability (Caco-2 [4]; 1000 nM) | cell viability (Caco-2 [4]; 10000 nM) | cell viability (Calu-3 [5]; 1 nM) | cell viability (Calu-3 [5]; 10 nM) | cell viability (Calu-3 [5]; 100 nM) | cell viability (Calu-3 [5]; 1000 nM) | cell viability (Calu-3 [5]; 10000 nM) | drug sensitivity score (HepG2 [6]) | drug sensitivity score (U2OS [7]) | drug sensitivity score (Vero E6 [8]) | drug sensitivity score (Caco-2 [9]) | drug sensitivity score (Calu-3 [10]) | relative viability EC50 (HepG2 [11]) | relative viability EC50 (U2OS [12]) | relative viability EC50 (Vero E6 [13]) | relative viability EC50 (Caco-2 [14]) | relative viability EC50 (Calu-3 [15])
O=C(O)[C@H]1CC[C@H](c2cc3cccnc3c(-c3cccc(F)c3)n2)CC1 | 96.3% | 98.9% | 101% | 92.2% | 90.1% | 104% | 98.4% | 96.9% | 96.5% | 99.6% | 101% | 99.3% | 96.3% | 99% | 86.3% | 102% | 103% | 108% | 98% | 109% | 112% | 95.1% | 91.1% | 95% | 107% | 0 | 0 | 0.2 | 0 | 0 | > 10 µM | > 10 µM | > 10 µM | > 10 µM | > 10 µM
COc1cc(C(=O)N(CC[C@H]2CCCN2C)C/C(C)=C/c2ccccc2F)cc(OC)c1OC (racemic) | 103% | 102% | 95.8% | 104% | 86.6% | 98.6% | 96.8% | 102% | 99.2% | 97.7% | 102% | 102% | 103% | 99.5% | 99% | 97.4% | 98.7% | 99.7% | 103% | 93.5% | 93.5% | 108% | 103% | 104% | 94.4% | 0.1 | 0 | 0 | 0 | 0 | > 10 µM | > 10 µM | > 10 µM | > 10 µM | > 10 µM
Cc1ccc(OC[C@@H](O)[C@H](C)NC(C)C)c2c1CCC2 (racemic) [ICI-118,551] | 111% | 106% | 100% | 111% | 95.3% | 108% | 98.5% | 113% | 100% | 113% | 98.6% | 94.2% | 101% | 90.5% | 94.1% | 109% | 103% | 99.2% | 109% | 97.8% | 121% | 98.9% | 109% | 105% | 112% | 0 | 0 | 0 | 0 | 0 | > 10 µM | > 10 µM | > 10 µM | > 10 µM | > 10 µM
CCCCCCCCCCCCCCCCCCCCCCCCCCCCO [1-octacosanol] | 103% | 109% | 97.6% | 116% | 102% | 97.6% | 96.5% | 102% | 96.2% | 96% | 95.5% | 98.5% | 96.7% | 95.6% | 104% | 95.4% | 85.8% | 97% | 91.8% | 95% | 99.1% | 105% | 102% | 95.5% | 96.1% | 0 | 0 | 0 | 0 | 0 | > 10 µM | > 10 µM | > 10 µM | > 10 µM | > 10 µM
O=C(O)c1ccc(N2C(=O)/C(=C/c3ccc(-c4ccc([N+](=O)[O-])cc4)o3)C=C2c2ccccc2)cc1 [4E1RCat] | 104% | 108% | 91.4% | 102% | 88.7% | 98.4% | 98.1% | 102% | 94.7% | 92.5% | 98.1% | 100% | 99% | 98.7% | 99.3% | 97.3% | 97.1% | 98.2% | 96.4% | 87.5% | 93.1% | 105% | 95.2% | 87.3% | 100% | 0 | 0 | 0 | 0.2 | 0 | > 10 µM | > 10 µM | > 10 µM | > 10 µM | > 10 µM
c1ccc(CNc2ncnc3[nH]cnc23)cc1 [6-benzylaminopurine] | 98.3% | 106% | 98.9% | 109% | 98.4% | 106% | 97.9% | 103% | 99.5% | 100% | 97.1% | 104% | 95.6% | 95% | 104% | 97% | 107% | 90.8% | 109% | 112% | 99.9% | 98.4% | 120% | 97.3% | 112% | 0 | 0 | 0 | 0 | 0 | > 10 µM | > 10 µM | > 10 µM | > 10 µM | > 10 µM
Cc1c(F)cc(C(=O)NC2CC2)cc1-c1c(F)cn2c(C(C)(C)C)nnc2c1F [AL-8697] | 96.5% | 105% | 90.9% | 105% | 94.7% | 98.9% | 95.9% | 94.1% | 93.1% | 93.7% | 95.8% | 100% | 93.9% | 86.3% | 87% | 95.4% | 93.5% | 97.7% | 93.4% | 95.3% | 95.7% | 99.2% | 97% | 88.4% | 102% | 0 | 0 | 1.4 | 0 | 0 | > 10 µM | > 10 µM | > 10 µM | > 10 µM | > 10 µM
O=C(NC1CCNCC1)c1n[nH]cc1NC(=O)c1c(Cl)cccc1Cl [AT-7519] | 111% | 99.4% | 108% | 22.5% | 9.6% | 103% | 97.6% | 100% | 100% | 7% | 99.6% | 102% | 102% | 99.6% | 96.6% | 91.4% | 93.2% | 94.2% | 104% | 33.5% | 100% | 99% | 95.9% | 83.9% | 37.5% | 14 | 5.2 | 0 | 3.3 | 5.9 | 0.509 µM | 3.19 µM | > 10 µM | 3.46 µM | 1.53 µM
CN1[C@@H]2CC[C@H]1C[C@@H](OC(=O)C(CO)c1ccccc1)C2 (stereo not given in full) [ATROPINE SULFATE] | 102% | 91.5% | 105% | 84.3% | 98.2% | 96.5% | 102% | 102% | 102% | 103% | 112% | 99.7% | 109% | 99.4% | 106% | 93.2% | 95% | 67.1% | 99.6% | 98.5% | 96.2% | 102% | 88.4% | 104% | 96.1% | 0 | 0 | 0 | 0 | 0 | > 10 µM | > 10 µM | > 10 µM | > 10 µM | > 10 µM
O=C(c1ccc(Cl)o1)N1CC2CNCC2C1 (stereo not given) [AZD1446] | 99.3% | 93.1% | 90.2% | 99.1% | 88% | 99.6% | 98.6% | 96.1% | 97.7% | 97.8% | 96.4% | 98.2% | 98.7% | 99.6% | 91.3% | 103% | 97.8% | 97% | 103% | 103% | 112% | 89.8% | 94.4% | 89.4% | 107% | 0 | 0 | 0 | 0 | 0 | > 10 µM | > 10 µM | > 10 µM | > 10 µM | > 10 µM
C[C@]12CC[C@H](O)CC1=CC[C@@H]1[C@@H]2CC[C@]2(C)C(c3cccnc3)=CC[C@@H]12 [Abiraterone (CB-7598)] | 97.7% | 92.7% | 103% | 95.1% | 103% | 95.3% | 101% | 95.7% | 103% | 104% | 99.9% | 95.2% | 93.9% | 96.4% | 112% | 87.1% | 92.3% | 100% | 101% | 98.1% | 96% | 107% | 100% | 98.3% | 100% | 0 | 0 | 0 | 0 | 0 | > 10 µM | > 10 µM | > 10 µM | > 10 µM | > 10 µM
CC1(C)C(=O)NC2=C1C(=O)C(=O)c1ccccc12 [BVT-948] | 97.5% | 95.4% | 88.7% | 94.8% | 21.3% | 101% | 98% | 95.8% | 100% | 0.1% | 98.3% | 102% | 104% | 97.9% | 19.6% | 92.1% | 104% | 99.6% | 86.8% | 0.9% | 98% | 101% | 104% | 102% | 20.3% | 5.1 | 5.6 | 4.7 | 7.7 | 4.2 | 2.63 µM | 3.17 µM | 2.97 µM | 2.09 µM | 3.34 µM

From the supplement of paper PMC13380429
